Paper PMC3929664, “A Panel of Diverse Assays to Interrogate the Interaction between Glucokinase and Glucokinase Regulatory Protein, Two Vital Proteins in Human Disease” (PLoS ONE, 2014)
Counter-ions that a name gives are not always drawn. One block for each compound: values may come before it.

Target: T1, GCK-GKRP interaction (recombinant human GST-GCK and FLAG-GKRP) (Homo sapiens, UniProt P35557+Q14397)
T1 construct: made in house
T1 sequence (P35557 1-465): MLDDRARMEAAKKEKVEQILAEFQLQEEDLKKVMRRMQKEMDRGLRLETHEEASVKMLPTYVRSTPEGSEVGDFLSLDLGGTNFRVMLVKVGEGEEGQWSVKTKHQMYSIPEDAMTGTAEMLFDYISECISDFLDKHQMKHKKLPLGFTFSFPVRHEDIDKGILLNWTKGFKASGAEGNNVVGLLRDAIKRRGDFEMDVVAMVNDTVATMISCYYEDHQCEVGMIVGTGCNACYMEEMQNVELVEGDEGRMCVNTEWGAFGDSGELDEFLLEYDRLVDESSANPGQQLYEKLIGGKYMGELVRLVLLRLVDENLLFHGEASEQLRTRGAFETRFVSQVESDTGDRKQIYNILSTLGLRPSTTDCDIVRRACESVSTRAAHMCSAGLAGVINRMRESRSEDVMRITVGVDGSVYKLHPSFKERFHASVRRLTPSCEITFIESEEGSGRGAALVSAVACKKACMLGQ
T1 sequence (Q14397 1-625): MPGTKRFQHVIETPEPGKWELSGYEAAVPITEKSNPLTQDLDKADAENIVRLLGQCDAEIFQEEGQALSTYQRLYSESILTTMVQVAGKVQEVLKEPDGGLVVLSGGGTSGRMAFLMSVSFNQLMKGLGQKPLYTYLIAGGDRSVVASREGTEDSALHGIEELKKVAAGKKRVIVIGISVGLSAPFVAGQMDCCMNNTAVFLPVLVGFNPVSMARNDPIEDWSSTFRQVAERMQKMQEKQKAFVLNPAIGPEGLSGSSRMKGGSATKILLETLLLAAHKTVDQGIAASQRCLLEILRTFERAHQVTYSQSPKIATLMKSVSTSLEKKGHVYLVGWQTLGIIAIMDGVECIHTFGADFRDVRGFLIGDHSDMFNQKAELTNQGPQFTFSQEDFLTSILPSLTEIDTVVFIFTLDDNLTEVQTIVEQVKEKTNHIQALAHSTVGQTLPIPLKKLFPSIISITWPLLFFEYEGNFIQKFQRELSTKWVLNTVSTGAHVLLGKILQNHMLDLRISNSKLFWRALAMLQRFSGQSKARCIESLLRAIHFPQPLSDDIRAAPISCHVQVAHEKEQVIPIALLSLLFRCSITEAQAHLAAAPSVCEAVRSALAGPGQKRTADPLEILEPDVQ
Experiment: HTRF assay of the GCK-GKRP protein-protein interaction
Type: binding
Settings: 5 nM GCK, 5 nM GKRP
Description: Homogeneous time-resolved fluorescence (HTRF) technology (Cisbio Bioassays, Bedford, MA, USA) was utilized for antibody-based FRET measurement of the GCK-GKRP protein-protein interaction. Recombinant human GST-GCK and FLAG-GKRP were mixed in an HTRF assay buffer containing 2 mM MgCl2, 25 mM KCl, 25 mM HEPES, 1 mM DTT, 0.1% Tween-20, and 0.025% BSA (all buffer components Sigma-Aldrich). The pH was adjusted to 7.1 by drop-wise addition of 10 N NaOH. […] For assays in 1536-well plate format, the two reaction mixes were dispensed using an Aurora Discovery BioRAPTR Flying Reagent Dispenser (BioRAPTR; Beckman Coulter, Inc., Brea, CA, USA) (3 µl/well for protein-containing buffer; 1 µl/well for detection antibodies) into white 1536-well solid-bottom medium binding plates (Greiner Bio-One, Monroe, NC, USA). […] For the LOPAC^1280 library screen, column 1 was all components with DMSO (maximum signal) and column 3 was no GKRP with DMSO (minimum signal). These two control columns were used for data normalization. The final HTS protocol is in Table S1, and the data have been deposited in PubChem (AID 743207).
S6P, F1P, and glucose were dissolved in water; GKAs were dissolved in DMSO.
The assay was validated using a range (0–150 nM) of GCK and GKRP concentrations at manufacturer-recommended detection antibody concentrations ( Figure 2A ). Fluorescence was measured immediately upon mixing, and every 30 minutes thereafter for a total of 240 minutes. The plate was covered and incubated at room temperature throughout the course of the experiment.
The assay was miniaturized to 1536-well plate format and, concurrently, specificity of detection was validated by using known modulators of the GCK-GKRP interaction.
The EC80 value represents a compromise between the desire for large enough signal enhancement and the need to maintain a binding level that is not too saturated so that it can be outcompeted by compounds of interest. Additionally, this approach enables detection of specific competitors of S6P, which would likely be acting on GKRP as desired, and not on GCK. […] Both glucose and GKAs interfere with the binding of GKRP to GCK and decrease GKRP inhibition, [44], [45], while F1P binds to GKRP and is competitive with respect to S6P [46].

Compound: O=C(O)C1=CC(=C(c2ccc(O)c(C(=O)O)c2)c2ccc(O)c(C(=O)O)c2)C=CC1=O [ATA, aurintricarboxylic acid]
LOPAC1280 screen outcome (2 µM S6P): inhibitors of the GCK-GKRP interaction

IC50 (2 µM S6P, mean ± SD, read-out: IC50 (inhibition of GCK-GKRP interaction, HTRF signal)): 70000 ± 5400 nM
Compound: O=C(COP(=O)(O)O)[C@@H](O)[C@H](O)[C@H](O)CO [F1P, fructose 1-phosphate]

EC80: 2000 nM
EC50 (1536-well, mean ± SD, read-out: EC50 (enhancement of HTRF signal)): 400 ± 80 nM
Compound: O=P(O)(O)OC[C@@H](O)[C@@H](O)[C@H](O)[C@@H](O)CO [S6P, sorbitol 6-phosphate]

LOPAC1280 screen outcome (2 µM S6P): inhibitors of the GCK-GKRP interaction
Compound: Cc1ccc(C(=O)Nc2ccc(S(=O)(=O)O)c3cc(S(=O)(=O)O)cc(S(=O)(=O)O)c23)cc1NC(=O)c1cccc(NC(=O)Nc2cccc(C(=O)Nc3cc(C(=O)Nc4ccc(S(=O)(=O)O)c5cc(S(=O)(=O)O)cc(S(=O)(=O)O)c45)ccc3C)c2)c1 [suramin sodium salt]
